Structures are written as SMILES. Several values for one entry are separate records, joined by “and”; a condition that tells them apart may be missing. Identical values can stand only once. Activity calls are given as the source filed them.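 How the source made its calls: active means compounds giving half or more protection of infected cells from virus-caused growth loss, again on retest; inactive means the rest.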

Among the data in PubChem BioAssay AID179 (DTP/NCI, 2004) are EC50, IC50 and outcome values, retold here.

In this experiment the test system is CEM cells HIV-1 protection, formazan growth assay. Description: NCI AIDS Antiviral Assay. Conditions: for IC50: measured here: growth of uninfected CEM cells. In outline: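 Soluble formazan readout of cell growth; CEM cells ± HIV-1; 5 drug concs. ≥50% protection → retest; ≥50% again = moderately active; reproducible 100% = confirmed active.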

What is called EC50 is the midpoint of the concentration-response curve. As usually defined, the IC50 is the concentration needed to halve the response being measured. A lower IC50 goes with inhibition by little substance. As to `CSc1ccc(C2OC(=O)c3c2ccc2ccccc32)c(C)c1` (stereo not given), the EC50 was over 16.2 µM and the IC50 was over 16.2 µM.
In the case of `CCN(Cc1cccc(S(=O)(=O)[O-])c1)c1ccc(C(=C2C=CC(=[N+](CC)Cc3cccc(S(=O)(=O)O)c3)C=C2)c2ccccc2S(=O)(=O)O)cc1`, the outcome was inactive.
Regarding `CCOP(=O)(OCC)C(C)(CC)/N=C(\N)NC#N` (stereo not given), the EC50 is over 200 µM and the IC50 is over 200 µM.
Consider `CCOC(=O)c1[nH]c2c(cc(C(=O)C(F)(F)F)c3ccccc32)c1C(F)(F)F`, for which the EC50 was over 17.8 µM and the IC50 was over 17.8 µM.
As to `CSc1ccc(/C=C2\C=Cc3ccccc32)cc1`, the EC50 was over 28.8 µM and the IC50 is over 28.8 µM.
With `COc1ccc(-c2c(C)oc(=O)c(NC(=O)c3ccccc3)c2C)cc1`, the EC50 is over 200 µM and the IC50 was found to be 57.5 µM.
For `Cc1nc(Nc2ccc(Cl)c(Cl)c2)sc1C(/C=C/c1ccc2c(c1)OCO2)=N/Nc1ccc([N+](=O)[O-])cc1[N+](=O)[O-]` the same measures were over 2.34 µM and over 2.34 µM.
In the case of `O=C(N/N=C/c1ccc(O)c(S(=O)(=O)O)c1)C(=O)N/N=C/c1ccc(O)c(S(=O)(=O)O)c1`, the EC50 was over 100 µM and the IC50 is over 100 µM.
With `COC1=CC(=O)c2c(O)c3c(c(O)c2C1=O)C=C(C)OC3O` (stereo not given), the result was inactive.
Take `COc1cc(C2c3cc4c(cc3OC(NNC(N)=O)C2C)OCO4)cc(OC)c1OC` (stereo not given): the EC50 is over 200 µM and the IC50 amounted to 0.331 µM.
Regarding `CC1=NN(C(=O)CC(=O)N(C(=O)c2ccccc2Cl)c2ccc(C)cc2)C(=O)C1N=Nc1ccc([N+](=O)[O-])cc1` (stereo not given), the EC50 is over 12.9 µM and the IC50 is over 12.9 µM.
As for `N#Cc1cnc(N)nc1NCC1(CO)CC(CCc2ccccc2)C1` (stereo not given), the EC50 was over 200 µM and the IC50 was determined as 7.24 µM.
The matching figures for `CC(=O)O/N=C1\C=Cc2c(no[n+]2[O-])C1=O`: over 200 µM and 18.2 µM.
Regarding `O=C(O)CNS(=O)(=O)c1ccc(NC(=O)c2ccc(F)cc2)cc1`, the result was inactive.
In the case of `Cc1cccc(-c2nc(-c3cnccn3)n(Cc3ccccc3)n2)c1`, the EC50 was over 200 µM and the IC50 is over 200 µM.
Consider `N#Cc1c(-c2ccccc2)cc(-c2ccc(N)cc2)[nH]c1=O`, for which the EC50 was over 18.2 µM and the IC50 was over 18.2 µM.
Take `C[C@@]1(OC(=O)c2cc([N+](=O)[O-])cc([N+](=O)[O-])c2)C[C@@H]2CCCC[C@@H]21`: the outcome was inactive.
As for `CC(=O)OCC1OC(n2c(-c3ccccc3)cc(-c3ccco3)c(C#N)c2=O)C(OC(C)=O)C(OC(C)=O)C1OC(C)=O` (stereo not given), the EC50 is over 17 µM; the IC50 is > 17 µM and 12.6 µM.
For `CC(C)(C)OC(=O)N1NC(c2ccccc2)CC1c1ccccc1` (stereo not given), the EC50 was over 200 µM and the IC50 amounted to 28.2 µM.
`O=C1Nc2ccc(Cl)c(I)c2C1=O`: the EC50 is over 61.7 µM and the IC50 is 35.5 µM.
In the case of `O=C1C(Cl)=C(Cl)C(=O)N1c1ccccc1Cl`, the outcome was inactive.
For `COc1cc2c(cc1O)[C@H](C)C(c1ccc(OC)c(OC)c1)O2` (stereo not given in full), the EC50 is over 214 µM and the IC50 stood at 10.5 µM.
Regarding `ON1CCc2c([nH]c3ccccc23)C1c1ccc(Cl)cc1` (stereo not given), the outcome was inactive.
With `Cc1cc(Cl)ccc1NC(=O)/C(CC(=O)CC(c1ccccc1)c1c(O)c2ccccc2oc1=O)=N\O` (stereo not given), the EC50 was over 132 µM and the concentration for half-maximal inhibition (IC50) was found to be 95.5 µM.
On to `CN1N(c2ccccc2)C(=O)C2=NC=C(C#N)C(=N)C21C` (stereo not given), for which the EC50 is over 200 µM and the IC50 was found to be 64.6 µM.
On to `CCC(=O)CCCC=C(c1cc(Cl)c(OC)c(CO)c1)c1cc(Cl)c(OC)c(CO)c1`, for which the EC50 is over 200 µM and the IC50 was determined as 14.1 µM.
Consider `Cc1nc(SCC(N)=O)c2sc(=S)n(-c3ccccc3)c2n1`, for which the EC50 is over 200 µM and the IC50 is over 200 µM.
On to `O=C(CCc1ccccc1)n1cccc1CO`, for which the EC50 is over 200 µM and the IC50 stood at 56.2 µM.
